Test results taken from ChEMBL document CHEMBL1201862, “PubChem BioAssay data set” (2004).
The source made the active and inactive calls.

What was measured:
[1] = target: Kallikrein-7 (Homo sapiens, UniProt P49862); assay: Fluorescence Intensity-based biochemical primary high throughput dose response assay to identify activators of kallikrein-7 (K7) zymogen.
[2] = P. falciparum late gametocyte killing, dose response, luminescence (AID 1117278); assay type: functional, cell-based;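 further: gametocytes exposed to compound for 24 hours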
[3] = Jurkat T cell cytotoxicity, dose response, cytotoxicity control for P. falciparum gametocyte viability project, luminescence (AID 1117277); assay type: functional, cell-based;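 further: potency reflects loss of cellular ATP meaning fewer viable cells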
[4] = tested on: Streptococcus sp. 'group A'; assay: growth inhibition of control SK(-) GAS strain, dose response, counter-screen for streptokinase expression inhibitor project, luminescence, kanamycin, BacTiterGlo, confirmation (AID 1900); assay type: functional, organism-based
[5] = target: T1, Streptokinase A (Streptococcus pyogenes serotype M1, UniProt P10520); assay: S. pyogenes streptokinase expression inhibitors, potency, dose response, plasminogen activation absorbance, OD405 (AID 1914); assay type: functional, Streptococcus pyogenes M1 GAS;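 further: secreted streptokinase activity via plasminogen activation per viability signal from cell pellet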
T1 sequence (P10520 whole entry): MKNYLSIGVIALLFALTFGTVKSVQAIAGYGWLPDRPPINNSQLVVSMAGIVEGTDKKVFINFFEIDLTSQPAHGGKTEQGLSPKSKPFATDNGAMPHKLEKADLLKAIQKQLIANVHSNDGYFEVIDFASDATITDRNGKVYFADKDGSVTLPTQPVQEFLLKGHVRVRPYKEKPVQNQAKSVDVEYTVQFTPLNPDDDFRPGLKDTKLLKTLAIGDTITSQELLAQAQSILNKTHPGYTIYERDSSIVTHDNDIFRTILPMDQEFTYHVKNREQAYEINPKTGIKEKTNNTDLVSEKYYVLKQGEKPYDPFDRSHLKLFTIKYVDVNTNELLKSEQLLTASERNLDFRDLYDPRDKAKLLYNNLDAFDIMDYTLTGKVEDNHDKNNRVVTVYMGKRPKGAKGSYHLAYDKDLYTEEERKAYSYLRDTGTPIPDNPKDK

[6] = tested on: Streptococcus; assay: Group A Streptococcus viability loss, dose response, counter-screen for streptokinase expression inhibitor project, luminescence, BacTiterGlo (AID 1915); assay type: functional, organism-based;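 further: potency for reduction of bacterial viability or growth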
[7] = inhibitors of PGC1a acetylation in cells, dose response, cell-based, cherry-picked samples (AID 720514); assay type: functional;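 further: potency may reflect raised or lowered acetylation signal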
[8] = target: Paired box protein Pax-8 (Homo sapiens, UniProt Q06710); assay: inhibitors of PAX8-driven TPO luciferase reporter, dose response, RMG-I cells, cherry-pick (AID 687027); assay type: functional, cell-based;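 further: luciferase reporter driven by Pax8 target thyroperoxidase promoter measured by SteadyGlo luminescence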
[9] = cytotoxicity in OVCAR8 ovarian cancer cells, dose response, PAX8 project, cell-based, plate reader, dry powder samples (AID 743197); assay type: functional; settings: OVCAR-8
[10] = NIH:OVCAR-3 ovarian cancer cell cytotoxicity, dose response, PAX8 inhibitor project, plate reader, dry powder samples (AID 743044); assay type: functional, cell-based
[11] = MC4R antagonists, dose response, counter-screen for LGR2 antagonist project, cell-based, plate reader, cherry pick (AID 743444); assay type: functional;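 further: transfected HEK 293 cells stimulated with alpha-MSH peptide; potency of inhibitors of the alpha-MSH evoked signal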
[12] = P. falciparum Dd2 growth inhibitors, dose response, SYBR Green, dry powder samples, set 9 (AID 1159568); assay type: functional, cell-based
[13] = LGR2 antagonists, dose response, cell-based, HEK293, CRE-luciferase reporter, cherry pick, set 2 (AID 743343); assay type: functional;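 further: transfected cells were stimulated with diluted bursicon conditioned medium after compound addition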
[14] = P. falciparum ATP4 D1247Y mutant growth inhibitors, dose response, NITD609-resistant line, SYBR Green, dry powder (AID 1159571); assay type: functional, cell-based;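 further: parasites synchronized at ring stage by sorbitol before testing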
[15] = P. falciparum Dd2 growth inhibitors, dose response, SYBR Green, dry powder samples (AID 1159566); assay type: functional, cell-based;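 further: potency for growth inhibition with lower SYBR green DNA signal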
[16] = A549 cell cytotoxicity, dose response, cytotoxicity control, plate reader, cherry-pick, antagonist series (AID 743412); assay type: functional, cell-based
[17] = HepG2 cell cytotoxicity, dose response, cytotoxicity control, plate reader, dry powder samples (AID 1159569); assay type: functional, cell-based;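 further: inhibitor potency with signal falling toward the positive control level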
[18] = P. falciparum 3D7-ScDHODH growth inhibitors, dose response, SYBR Green, dry powder samples (AID 1159570); assay type: functional, cell-based;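 further: parasite growth measured after 72 hours of compound exposure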
[19] = P. falciparum Dd2 growth inhibitors, dose response, SYBR Green, cherry-picked samples (AID 1159567); assay type: functional, cell-based
[20] = target: T2, Oxysterols receptor LXR-beta (Homo sapiens, UniProt P55055); assay type: functional, cell-based;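 further: Cell-based luminescence dose-response assay of agonist activity at LXR, run as a confirmatory counterscreen to a daf-12 agonist screen; HEK293 cells with Gal4-LXR fusion and GAL4-driven luciferase reporter; agonist potency from rising luciferase signal of a Gal4-LXR reporter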
T2 sequence (P55055 whole entry): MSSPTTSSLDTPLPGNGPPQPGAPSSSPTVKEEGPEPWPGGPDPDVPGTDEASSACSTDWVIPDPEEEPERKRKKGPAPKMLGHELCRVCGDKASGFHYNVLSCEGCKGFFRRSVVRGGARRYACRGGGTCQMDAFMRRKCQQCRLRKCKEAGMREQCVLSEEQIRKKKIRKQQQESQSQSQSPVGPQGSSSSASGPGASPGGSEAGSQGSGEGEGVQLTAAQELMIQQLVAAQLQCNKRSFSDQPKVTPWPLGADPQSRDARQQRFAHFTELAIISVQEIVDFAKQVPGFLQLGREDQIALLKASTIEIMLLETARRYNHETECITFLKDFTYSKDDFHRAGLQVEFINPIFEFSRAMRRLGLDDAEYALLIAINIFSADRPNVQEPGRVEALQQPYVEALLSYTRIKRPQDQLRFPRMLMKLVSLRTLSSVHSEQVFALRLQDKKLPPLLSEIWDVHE

[21] = target: T3, Sentrin-specific protease 8 (Homo sapiens, UniProt Q96LD8); assay type: functional;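 further: luminescence read-out of SENP8 inhibition, dose-response confirmation following an ultra-high-throughput screen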
T3 sequence (Q96LD8 whole entry): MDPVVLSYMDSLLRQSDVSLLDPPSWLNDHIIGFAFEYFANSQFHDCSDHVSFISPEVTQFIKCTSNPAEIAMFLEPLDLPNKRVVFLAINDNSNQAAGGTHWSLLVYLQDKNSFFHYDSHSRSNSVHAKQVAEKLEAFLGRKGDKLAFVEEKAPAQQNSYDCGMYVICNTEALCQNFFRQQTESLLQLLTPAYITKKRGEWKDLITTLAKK

[22] = target: T4, Caspase-3 (Homo sapiens, UniProt P42574); assay type: functional;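 further: Dose-response selectivity test against caspase-3 for candidate inhibitors of sentrin-specific proteases (SENPs)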
T4 sequence (P42574 whole entry): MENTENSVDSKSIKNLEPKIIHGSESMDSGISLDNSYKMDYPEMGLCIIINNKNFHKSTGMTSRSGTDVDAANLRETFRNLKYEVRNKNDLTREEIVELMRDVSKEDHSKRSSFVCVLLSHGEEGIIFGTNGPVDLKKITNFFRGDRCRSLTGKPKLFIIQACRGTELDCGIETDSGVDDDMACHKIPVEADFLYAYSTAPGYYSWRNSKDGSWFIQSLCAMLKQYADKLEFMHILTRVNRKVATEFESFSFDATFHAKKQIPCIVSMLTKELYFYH

[23] = cells
[24] = target: T5, Sentrin-specific protease 7 (Homo sapiens, UniProt Q9BQF6); assay type: functional;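 further: Luminescence-based dose-response confirmation of ultra-high-throughput screening hits, measuring inhibition of SENP7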
T5 sequence (Q9BQF6 whole entry): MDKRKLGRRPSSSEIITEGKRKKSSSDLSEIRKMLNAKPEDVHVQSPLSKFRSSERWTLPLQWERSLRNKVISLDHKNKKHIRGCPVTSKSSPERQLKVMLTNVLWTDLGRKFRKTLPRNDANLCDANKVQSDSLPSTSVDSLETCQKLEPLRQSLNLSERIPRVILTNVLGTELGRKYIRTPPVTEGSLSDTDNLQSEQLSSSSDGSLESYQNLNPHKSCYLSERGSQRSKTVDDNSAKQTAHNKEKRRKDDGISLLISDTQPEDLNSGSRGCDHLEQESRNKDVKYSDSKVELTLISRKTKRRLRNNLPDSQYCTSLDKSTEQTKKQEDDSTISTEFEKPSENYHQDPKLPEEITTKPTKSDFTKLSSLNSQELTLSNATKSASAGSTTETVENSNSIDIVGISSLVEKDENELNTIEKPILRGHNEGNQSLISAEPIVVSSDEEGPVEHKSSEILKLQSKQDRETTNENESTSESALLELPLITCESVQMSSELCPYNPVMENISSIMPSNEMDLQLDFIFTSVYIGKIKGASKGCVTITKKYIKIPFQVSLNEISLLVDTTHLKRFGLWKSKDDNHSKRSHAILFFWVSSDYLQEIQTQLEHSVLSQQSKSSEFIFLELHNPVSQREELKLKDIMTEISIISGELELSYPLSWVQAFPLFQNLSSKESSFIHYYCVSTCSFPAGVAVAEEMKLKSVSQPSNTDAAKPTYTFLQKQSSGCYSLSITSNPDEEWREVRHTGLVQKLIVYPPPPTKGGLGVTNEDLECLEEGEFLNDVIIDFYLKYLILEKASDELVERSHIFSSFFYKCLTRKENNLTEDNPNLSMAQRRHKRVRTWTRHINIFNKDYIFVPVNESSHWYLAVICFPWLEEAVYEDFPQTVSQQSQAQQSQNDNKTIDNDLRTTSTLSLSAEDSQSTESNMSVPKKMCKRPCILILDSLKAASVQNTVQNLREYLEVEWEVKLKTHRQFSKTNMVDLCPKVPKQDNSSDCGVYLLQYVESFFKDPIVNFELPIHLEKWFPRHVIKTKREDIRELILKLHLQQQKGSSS

[25] = target: T6, Sentrin-specific protease 6 (Homo sapiens, UniProt Q9GZR1); assay type: functional;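 further: Luminescence-based dose-response confirmatory assay of SENP6 inhibition, following up an ultra-high-throughput screen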
T6 sequence (Q9GZR1 whole entry): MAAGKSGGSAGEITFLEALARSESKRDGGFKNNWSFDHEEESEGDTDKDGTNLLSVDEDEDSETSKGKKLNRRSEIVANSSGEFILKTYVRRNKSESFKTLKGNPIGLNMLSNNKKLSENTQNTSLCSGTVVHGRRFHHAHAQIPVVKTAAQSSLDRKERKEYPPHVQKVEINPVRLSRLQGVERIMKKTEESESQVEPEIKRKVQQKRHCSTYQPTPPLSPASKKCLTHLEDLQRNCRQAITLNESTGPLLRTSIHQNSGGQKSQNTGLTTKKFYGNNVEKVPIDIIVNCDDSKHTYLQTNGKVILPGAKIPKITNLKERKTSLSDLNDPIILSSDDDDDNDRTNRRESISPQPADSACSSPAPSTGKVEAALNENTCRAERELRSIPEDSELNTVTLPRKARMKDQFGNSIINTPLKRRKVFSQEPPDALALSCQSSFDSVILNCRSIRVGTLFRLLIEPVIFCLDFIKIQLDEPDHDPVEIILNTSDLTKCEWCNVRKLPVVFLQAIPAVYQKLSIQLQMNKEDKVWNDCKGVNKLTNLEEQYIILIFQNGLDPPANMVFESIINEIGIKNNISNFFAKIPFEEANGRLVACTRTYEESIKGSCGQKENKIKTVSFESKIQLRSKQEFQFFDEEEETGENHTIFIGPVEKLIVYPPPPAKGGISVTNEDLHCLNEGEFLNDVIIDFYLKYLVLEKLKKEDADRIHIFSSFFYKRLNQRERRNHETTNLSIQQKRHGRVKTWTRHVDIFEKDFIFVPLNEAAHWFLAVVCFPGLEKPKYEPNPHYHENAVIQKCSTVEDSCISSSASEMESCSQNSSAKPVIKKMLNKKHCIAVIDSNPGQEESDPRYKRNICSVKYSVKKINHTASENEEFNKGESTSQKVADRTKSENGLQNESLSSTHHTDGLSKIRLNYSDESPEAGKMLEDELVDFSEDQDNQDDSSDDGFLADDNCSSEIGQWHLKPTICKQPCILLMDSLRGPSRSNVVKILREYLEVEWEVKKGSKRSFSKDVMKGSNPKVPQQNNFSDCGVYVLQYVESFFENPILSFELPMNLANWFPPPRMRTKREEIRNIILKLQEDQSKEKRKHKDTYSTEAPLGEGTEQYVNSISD

[26] = target: G-protein coupled receptor 183 (Homo sapiens, UniProt P32249); assay: SAR confirmation of small molecule antagonists of the EBI2 receptor via a luminescent beta-arrestin assa.; assay type: functional
Sequence of G-protein coupled receptor 183 (P32249 whole entry): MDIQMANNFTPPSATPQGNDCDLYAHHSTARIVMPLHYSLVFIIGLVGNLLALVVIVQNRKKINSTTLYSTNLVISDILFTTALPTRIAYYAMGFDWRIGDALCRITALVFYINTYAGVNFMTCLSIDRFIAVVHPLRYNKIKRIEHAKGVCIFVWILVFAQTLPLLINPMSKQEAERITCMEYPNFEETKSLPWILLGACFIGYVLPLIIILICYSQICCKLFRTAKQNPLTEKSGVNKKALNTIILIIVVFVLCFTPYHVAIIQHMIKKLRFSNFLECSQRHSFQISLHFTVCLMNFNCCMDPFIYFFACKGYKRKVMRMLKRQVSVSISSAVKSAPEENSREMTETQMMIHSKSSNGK

Sequence of Kallikrein-7 (P49862 whole entry): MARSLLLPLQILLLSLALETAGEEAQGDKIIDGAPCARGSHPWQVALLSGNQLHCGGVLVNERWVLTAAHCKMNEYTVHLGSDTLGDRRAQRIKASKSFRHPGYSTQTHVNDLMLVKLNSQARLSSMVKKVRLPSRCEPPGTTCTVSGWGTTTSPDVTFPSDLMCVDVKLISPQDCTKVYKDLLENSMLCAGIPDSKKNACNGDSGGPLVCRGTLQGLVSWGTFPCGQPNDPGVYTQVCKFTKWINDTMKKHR
Sequence of Paired box protein Pax-8 (Q06710 whole entry): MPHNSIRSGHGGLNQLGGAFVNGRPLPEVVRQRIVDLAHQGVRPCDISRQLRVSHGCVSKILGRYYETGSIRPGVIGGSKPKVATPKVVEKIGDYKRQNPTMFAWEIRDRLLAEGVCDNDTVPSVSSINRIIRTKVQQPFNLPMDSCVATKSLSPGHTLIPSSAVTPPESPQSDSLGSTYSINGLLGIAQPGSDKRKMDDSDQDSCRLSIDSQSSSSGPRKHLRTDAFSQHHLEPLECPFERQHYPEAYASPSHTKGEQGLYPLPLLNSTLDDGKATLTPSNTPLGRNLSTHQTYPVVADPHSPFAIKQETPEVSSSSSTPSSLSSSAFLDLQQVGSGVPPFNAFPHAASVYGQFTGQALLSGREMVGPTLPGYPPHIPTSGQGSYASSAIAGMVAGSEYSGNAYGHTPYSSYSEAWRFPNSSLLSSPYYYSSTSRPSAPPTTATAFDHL

CN(C)CCNS(=O)(=O)c1ccc2c3c(cccc13)C(=O)N2
EC50 [1]: 1.83 µM (active)

CCOC(=O)N1CCC2(CC1)CC(=O)c1c(ccc3oc(C(=O)O)c(C)c13)O2
EC50 [1]: 97.5 µM (inactive)

COc1cc(CCC(C)=O)ccc1OC(=O)c1c(F)cccc1Cl
IC50 [2]: > 109 µM (inactive) | IC50 [3]: > 83.2 µM (inactive)

Cc1ccc(C)n1-c1sc2c(c1C#N)CCC(C)C2 (configuration not stated)
EC50 [4]: 7.14 µM (active) | EC50 [5]: 14.6 µM (active) | IC50 [2]: > 109 µM (inactive) | IC50 [3]: > 83.3 µM (inactive) | EC50 [6]: > 150 µM (not active)

O=C1Nc2ccccc2N=C(c2ccccc2)C1N(Cc1ccc(F)cc1)C(=O)c1cccnc1 (configuration not stated)
AC50 [7]: 36.7 µM (active)

Cc1ccc(S(=O)(=O)N(C)C[C@@H]2Oc3cc(C#Cc4ccncc4)ccc3S(=O)(=O)N([C@H](C)CO)C[C@H]2C)cc1
AC50 [8]: 3.3 µM (active) | AC50 [9]: > 70 µM (inactive) | AC50 [10]: 3.13 µM (active) | AC50 [7]: 3.54 µM (active)

C[C@H](CO)N1C[C@H](C)[C@H](CN(C)S(=O)(=O)c2ccc(C(F)(F)F)cc2)OCc2ccccc2-c2c(n(C)c3ccccc23)C1=O
AC50 [11]: 28.9 µM (active) | AC50 [12]: 0.293 µM (active) | AC50 [13]: 27.3 µM (active) | AC50 [14]: 0.152 µM (active) | AC50 [15]: 0.117 µM (active) | AC50 [16]: 19.8 µM (active) | AC50 [17]: 25.7 µM (active) | AC50 [18]: 0.155 µM (active) | AC50 [19]: 0.427 µM (active)

CCOC(=O)/C(=N\Nc1ncnc2ccccc12)c1ccc(C)cc1
EC50 [20]: > 67.6 µM (inactive) | IC50 [21]: 13.4 µM (active) | IC50 [22]: 32.9 µM (active) | EC50 [23]: > 67.6 µM (inactive) | IC50 [24]: 6.78 µM (active) | IC50 [25]: 11.7 µM (active)

C[C@@H]1CN([C@H](C)CO)C(=O)c2cccc(NC(=O)c3ccc(-c4nccs4)cc3)c2O[C@@H]1CN(C)C(=O)Nc1ccc(C(F)(F)F)cc1
AC50 [12]: 0.886 µM (active)

O=C(/C=C/c1ccc(F)cc1)N1CCN(S(=O)(=O)c2ccccc2Br)CC1
IC50 [26]: 0.00801 µM (active)

Cc1ccc(C(=O)N2CCN(C(=O)/C=C/c3ccc(Br)cc3)CC2)cc1
IC50 [26]: 0.00102 µM (active)
